# Reference: patent publication US20020086027A1, “Composition and method for enhancing immunological memory response” (priority 1998, published 2002)
# Tests used:
# [1] = test system: human T cells; assay: Secondary (recall) alloproliferative response of T cells primed in vitro; assay type: cell-based
# Procedure: In this system, we have used responses to first exposure as an indication of primary responses. When cells stimulated in this fashion are rested in culture and then restimulated with the same stimulator PBMCs, the 'recall' response measured are taken as an indication of immune memory. Proliferation is measured by the incorporation of radioactive tritiated thymidine in dividing cells. For priming, responder and stimulator cells mixed in 2-5 ml cultures in a ratio of 1:1-3:1. After five days of incubation, the cells were harvested, counted and viable cells used as primed responders with g-irradiated allostimulators in secondary alloproliferation assays, which were pulsed with (H^3)-thymidine after four days for estimating cell proliferation. For flow cytometric analysis, cells were separated from debris by Ficoll-Paque gradient centrifugation before staining. […] Sigma Chemical Co.) at room temperature for 20 minutes, washed extensively and used. For priming in vitro, responder PBMCs were incubated for 72 or 144 h at a ratio of either 1:1 or 2:1 respectively, with stimulator PBMCs. Where appropriate, CsA. Aph. and/or […] were added at the concentrations indicated, of PFA-fixed PBMCs were used instead.
# [2] = test system: CD25+ CD4 T cells; assay: Flow cytometry of CD25 and Fas (CD95) on primed cells; assay type: cell-based, human; details: aphidicolin 1 ug/ml present during two-day rest period
# Procedure: For analysis of cell surface markers, primed cell populations separated on Ficoll-Paque gradients were used. […] Briefly, 1-3×10^5 cells per well were stained with primary antibodies at 4° C., followed by appropriately labeled secondary reagents if required. Samples were analyzed using a Bryte flow cytometer (bio-Rad, Hemel Hampstead, UK). Antibodies to the T cell markers CD3 (OKT3), CD4 (OKT4), and to the activation markers CD25 and Fas (CD95) were used for staining. To detect apoptosis using propidium iodide (PI, Sigma Chemical Co.), antibody-stained cells were fixed and permeabilized with 70% ethanol, washed, and PI […] added just before cytometric analysis. Data were analyzed using FlowJo software (Treestar, San Jose, Calif.).
# The phenotype of CD4 T cells activated during priming in vitro was examined next using various markers associated with T cell activation. Antibodies against CD25 (IL-2Ra), CD26, CD45RO, CD69 and gp240 were used, but except for CD25, none of the other markers gave consistent and reliable results (data not shown). CD25 expression on CD4 T cells in the responder populations was examined in a two-color flow cytometric analysis at two separate time points,—at the end of six days of priming and after two further rest days in culture after washing and resuspension in resh medium without any stimuli. Most CD25-expressing cells in the primed cultures were CD4 T cells. […] The frequency of CD25 expression increased in the PBMC-primed responders (FIG. 17B) and this percentage was lower if POX (100 μg/ml) was present during priming (FIG. 17C). […] Similar data were observed if dbcAMP was present during priming (data not shown). It can be seen that the proportion of CD25* cells was reproducibly lower if POX was present during priming with allo-PBMCs. However, after 48 hours of rest in culture, the frequency of CD25* cells declined in the populations primed in the absence of POX, while it went up in the group primed under POX cover.
# [3] = test system: human T cells; assay: Primary alloproliferative response of responder PBMCs to irradiated MHC-mismatched stimulator PBMCs ([3H]thymidine incorporation); assay type: cell-based
# Procedure: In this system, we have used responses to first exposure as an indication of primary responses. When cells stimulated in this fashion are rested in culture and then restimulated with the same stimulator PBMCs, the 'recall' response measured are taken as an indication of immune memory. Proliferation is measured by the incorporation of radioactive tritiated thymidine in dividing cells. PBMCs from HLA-mismatched individuals were separated using density-gradient centrifugation on Ficoll-Paque (Pharmacia, Uppsala, Sweden). Stimulator PBMCs were used in titrated doses after g-irradiation (200 rads). For the primary proliferative alloresponses, stimulator in graded doses were used with 1-3×10^5 responders per well in 200 μl of RPMI-1640 (Life Technologies, Grand Island, N.Y.) fortified with L-glutamine (Life Technologies) and antibiotics, containing 10% heat-inactivated responder autologous serum. Cultures were incubated in a CO2 atmosphere for five days, pulsed with 0.5 uCi of (H^3)-thymidine (New England Nuclear, Boston, Mass.) for the last 8-12 hours of the assay and harvested onto glass fiber filters for counting cell-incorporated thymidine (Betaplate; Wallac, Finland). results are expressed as mean cpm±SE for triplicate cultures. Dibutyryl cyclic AMP (dbcAMP), pentoxifylline (POX), aphidicolin (all from Sigma Chemical Co., St Louis, Mo.) and recombinant IL-2 (Boehringer Manheim Corp., Manheim Germany) were added singly or together to the culture in various doses as indicated during priming and in primary alloresponse assays. […] Sigma Chemical Co.) at room temperature for 20 minutes, washed extensively and used. PBMCs from MHC-mismatched donors were used as responder-stimulator pairs. Stimulator cells were used after γ-irradiation (200 rad) at various concentrations, as shown. Proliferation assays were set up as parallel cultures and were pulsed and harvested as below on different days when necessary for the analyses of the kinetics of the response. Where appropriate, cyclosporin A (CsA, Sandoz, Milan, Italy), aphidicolin (Aph, Sigma Chemical Co., and/or pentoxifylline ([…], Sigma Chemical Co.) Were added at the concentrations indicated, or PFA-fixed PBMCs were used. The plated were pulsed with 0.5 to 1 μCi of (^3H)thymidine ([^3H]TdR. Amersham, Little Chalfont, U.K.) During the last 12 to 16 h of the assay (4 days for a recall assay and 6 days for a primary assay, unless indicated otherwise). [^3H] TdR incorporation was measured by harvesting the cultures on glass-fibers and counting in a scintillation counter (Betaplate: LKB-Pharmacia. Uppsala, […]). The results are expressed as mean cpm±SE of triplicate cultures.
# [4] = test system: allo-specific precursor T cells; assay: Limiting dilution analysis of clonal responder frequency and burst size; assay type: cell-based, human; details: drug present during priming (POX 100 ug/ml)
# Source text: Limiting dilution analyses were used to calculate the number of transplantation antigen-specific memory T cells in cultures primed in the presence or absence of POX. Multiple replicate wells of titrated numbers of primed responders were restimulated. the numbers of wells showing proliferative responses at each responder dose were used to calculate the frequency of responding memory t cells in the primed populations. estimates of the extent of proliferation in wells effectively containing single responder cells served as a measure of clonal burst size. […] To determine the frequence of all-specific precursor cells in the various responder populations, titrating numbers (from 10,000 to 200 per well) of variously primed cells were added to a constant number (1×10^5 per well) of g-irradiated stimulator PBMCs. Of the 48 wells plated per responder dose, those wells showing a response at least twice that of the background value were scored positive. The responder frequency was calculated by taking the number of negative wells into account. The response was considered clonal at the responder cell number where the proportion of positively responding wells was less than 37%. At responder cell concentrations showing clonal frequencies, the average cpm values of responding (versus non-responding) wells were used as an estimate of the average clonal burst size of single responding T cells.
compound,measurement,setting,value
"C[C@@]1(CO)[C@H](O)CC[C@@]2(C)[C@H]1CC[C@H]1C[C@@H]3C[C@@]12CC[C@]3(O)CO [Aph, aphidicolin]",responses of unprimed PBMCs incubated with Aph,[1]; no stimulators,unaltered
same,recall response,[1]; primed with 1 μg/ml Aph vs primed in absence of Aph,comparable
same,recall response,[1]; primed with 3 μg/ml Aph,significant enhancement
same,increase in frequency of CD25+ cells in responders exposed to POX during priming,[2],does not abrogate
same,T cell proliferation in first response,[3]; 1 μg/ml Aph,inhibited substantially
same,T cell proliferation in first response,[3]; 3 μg/ml Aph,completely undetectable
same,kinetics of primary response,"[3]; days 4-10, drugs present throughout",declines equivalently
same,primary response after drug removal,"[3]; drugs removed on day 6, pulsed days 8 and 10",no increase
"CCCC(=O)Nc1ncnc2c1ncn2[C@@H]1O[C@@H]2COP(=O)(O)O[C@H]2[C@H]1OC(=O)CCC [dbcAMP, Dibutyryl cyclic AMP]",recall response,[1]; priming in presence of 10 mM dbcAMP,No effect
same,secondary response,[1]; priming in presence of 100 mM dbcAMP,significant enhancement
same,primary proliferative response,[3]; 1 mM dbcAMP,inhibits
same,primary proliferative response,[3]; 10 mM dbcAMP,No effect
same,primary proliferative response,[3]; 100 mM dbcAMP,does inhibit
same,frequency of alloreactive responder (memory) T cells,[4],significantly enhances
paraformaldehyde [PFA],recall response capability induced by PFA-fixed APCs,"[1]; 0.003% PFA, vs unfixed APCs",comparable with or greater than
same,recall response of cells primed with PFA-fixed APCs,"[1]; 0.3% PFA, vs unprimed cells",distinctly lower
same,primary alloproliferative response to PFA-fixed APCs,[3]; 0.0003% PFA,significant lowering
